Measurements from patent US5444083A, “Pyrrolidine compound and pharmaceutical use” (Eisai Co., Ltd., priority 1989, dated 1995).
Where a name gives a salt, the structure may show the parent alone.

Tests used:
[1] = system: anesthetized dogs; test: Action cardiohemodynamics in anesthetized dogs; type: in vivo, Mongrel dogs; conditions: Canis lupus familiaris, iv, intravenously, read-out: decrease of mean blood pressure; for inhibition in vivo at 0.003 mg/kg: 3 microgram/kg; for inhibition in vivo at 0.001 mg/kg: 1 microgram/kg; for inhibition in vivo at 0.01 mg/kg: 10 microgram/kg
Method: 2. Action cardiohemodynamics in anesthetized dogs
Mongrel dogs of about 10 kg were anesthetized with the intravenous administration of 20 mg/kg of thiopental sodium. They were then treated by introducing oxygen gas, nitrous oxide gas and enflurane in combination through an endotracheal tube inserted thereinto to conduct artificial respiration and with an Acoma artificial respirator ARF-850E (trademark) and an Acoma anesthesia apparatus EM-A (trademark) to keep the anesthesia still effective. The aortic pressure and the internal pressure of the left ventricle were determined with a micro-tip catheter pressure transducers, MPC-500, tradename of Miller, inserted at the femoral arteries. The renal blood […] was determined by exposing by laparotomy the renal artery to a probe of an electromagnetic blood flowmeter, MFV-2100, tradename of Nihon Kohden Corp. Results are caught with a polygraph system, RM-6000, tradename of Nihon Kohden Corp.
The specimen was dissolved in a 0.9% saline solution and administered at the brachial vein through a catheter inserted thereinto. When the administration was made at the duodenum, the duodenum was exposed by the median incision to a catheter inserted thereinto. Results are shown in terms of an increase in percent of the renal blood flow and a decrease in percent of the mean blood pressure when the test compound was administered.

[2] = target: T1, D1 receptor (striatum of rat) (Rattus norvegicus, UniProt P18901); test: specific binding of D1 receptors in the striatum of rat; conditions: displacement of 3H-Sch23390 0.3 nM, rat striatum synaptosome fraction, 37 degree centigrade, 15 minutes
T1 construct: The striatum of rats were excised, homogenized; from tissue; host or cells: rat striatum, synaptosome fraction
T1 sequence (P18901 whole entry): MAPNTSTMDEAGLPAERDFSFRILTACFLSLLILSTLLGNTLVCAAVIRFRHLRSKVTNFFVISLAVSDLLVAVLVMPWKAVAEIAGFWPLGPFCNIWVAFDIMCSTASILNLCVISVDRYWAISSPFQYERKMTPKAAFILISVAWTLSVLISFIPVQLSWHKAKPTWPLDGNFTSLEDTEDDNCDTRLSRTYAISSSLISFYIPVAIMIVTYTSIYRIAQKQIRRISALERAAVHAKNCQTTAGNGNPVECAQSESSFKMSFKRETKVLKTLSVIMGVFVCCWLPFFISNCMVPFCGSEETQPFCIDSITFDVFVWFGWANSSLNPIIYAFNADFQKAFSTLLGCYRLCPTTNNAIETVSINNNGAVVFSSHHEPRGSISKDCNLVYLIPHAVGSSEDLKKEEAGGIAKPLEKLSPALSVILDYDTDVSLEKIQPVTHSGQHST
Method: (§1) 1. Test on specific binding of D1 and D2 receptors in the striatum of rat
(§2) The striatum of rats were excised, homogenized with a 0.05M Tris Fuffer and then centrifuged at 20,000×g to collect its synaptosome fraction. The sediment was washed several times with a 0.25M Tris Buffer and suspended in a 0.05M Tris Buffer containing 120 mM of Nacl, 5 mM of KCl, 2 mM of CaCls and 1 mM of MgCl2. The suspension was, in portions, placed in the frozen state at minus 80 degree centigrade. ^3 H-Sch23390 having a final concentration of 0.3 nM in the case of D1 and ^3 H-Spiperone having a finish concentration of 0.2 nM in the case of D2 were added to the portions of the suspension, respectively, together with a specimen. The mixtures were incubased at 37 degree centigrade for 15 minutes. Having been filtrated with a Whatman GF/B filter, they were examined with a liquid scintillation counter.

[3] = target: T2, D2 receptor (striatum of rat) (Rattus norvegicus, UniProt P61169); test: specific binding of D2 receptors in the striatum of rat; conditions: displacement of 3H-Spiperone 0.2 nM, rat striatum synaptosome fraction, 37 degree centigrade, 15 minutes
T2 construct: The striatum of rats were excised, homogenized; from tissue; host or cells: rat striatum, synaptosome fraction
T2 sequence (P61169 whole entry): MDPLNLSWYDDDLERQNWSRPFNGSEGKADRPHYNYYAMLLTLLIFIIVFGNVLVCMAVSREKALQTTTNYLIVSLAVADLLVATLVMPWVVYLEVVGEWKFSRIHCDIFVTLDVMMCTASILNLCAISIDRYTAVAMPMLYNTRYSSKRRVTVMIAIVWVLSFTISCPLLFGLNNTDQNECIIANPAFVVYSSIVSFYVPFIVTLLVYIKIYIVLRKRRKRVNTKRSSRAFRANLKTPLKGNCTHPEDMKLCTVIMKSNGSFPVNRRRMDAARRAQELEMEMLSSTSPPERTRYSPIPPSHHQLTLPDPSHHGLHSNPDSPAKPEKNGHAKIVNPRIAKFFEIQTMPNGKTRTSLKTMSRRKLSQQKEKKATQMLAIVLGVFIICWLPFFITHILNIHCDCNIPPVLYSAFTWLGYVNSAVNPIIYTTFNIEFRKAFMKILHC
Method: as §1, §2

Row | Compound | inhibition in vivo at 0.003 mg/kg [1] [%] | IC50 [2] [µM] | IC50 [3] [µM] | inhibition in vivo at 0.001 mg/kg [1] [%] | inhibition in vivo at 0.01 mg/kg [1] [%]
1 | Oc1ccc([C@@H]2CNC[C@H]2Cc2cccc(F)c2O)cc1O (relative stereo) [Compound L, trans-3-(3-fluoro-2-hydroxyphenyl)methyl-4-(3,4-dihydroxyphenyl)pyrrolidine] | 21 | 0.2 | 5 | – | –
2 | Oc1ccc([C@@H]2CNC[C@H]2Cc2cc(F)cc(F)c2O)cc1O (relative stereo) [Compound K, trans-3-(3,5-difluoro-2-hydroxyphenyl)-methyl-4-(3,4-dihydroxyphenyl)-pyrrolidine] | – | 0.13 | 2 | 17 | –
3 | Cc1ccccc1[C@@H]1CNC[C@H]1c1ccc(O)c(O)c1 (relative stereo) [Compound B, trans-3-(3,4-dihydroxyphenyl)-4-(2-methylphenyl)pyrrolidine hydrobromide] | – | 0.6 | 10 | – | 23
4 | Oc1ccc([C@@H]2CNC[C@H]2Cc2cc(Cl)ccc2O)cc1O (relative stereo) [Compound H, trans-3-(3-chloro-6-hydroxyphenyl)-methyl-4-(3,4-dihydroxyphenyl)-pyrrolidine] | 15 | 0.3 | 0.3 | – | –
5 | Oc1ccc([C@@H]2CNC[C@H]2Cc2c(O)ccc(Cl)c2O)cc1O (relative stereo) [Compound J, trans-3-(3-chloro-2,6-dihydroxyphenyl)-methyl-4-(3,4-dihydroxyphenyl)-pyrrolidine] | – | 0.13 | 1 | 22 | –
6 | Oc1ccc([C@@H]2CNC[C@H]2Cc2c(O)cccc2O)cc1O (relative stereo) [Compound I, trans-3-(2,6-dihydroxyphenyl)methyl-4-(3,4-dihydroxyphenyl)pyrrolidine] | 29 | 0.2 | 0.07 | – | –
7 | Oc1ccc([C@@H]2CNC[C@H]2c2ccccc2)cc1O (relative stereo) [Compound A, trans-3-(3,4-dihydroxyphenyl)-4-phenylpyrrolidine hydrobromide] | – | 4.8 | 88 | – | –
8 | Cc1ccsc1[C@H]1CNC[C@H]1c1ccc(O)c(O)c1 (relative stereo) [Compound F, cis-3-(3,4-dihydroxyphenyl)-4-(3-methylthienyl)pyrrolidine hydrobromide] | – | 9 | 50 | – | –
9 | Oc1ccc([C@@H]2CNC[C@H]2c2ccccc2Cl)cc1O (relative stereo) [Compound C, trans-3-(2-chlorophenyl)-4-(3,4-dihydroxyphenyl)pyrrolidine hydrobromide] | – | 0.6 | 7 | – | 21
10 | Oc1ccc([C@@H]2CNC[C@H]2c2cccc(O)c2Cl)cc1O (relative stereo) [Compound D, trans-3-(2-chloro-3-hydroxyphenyl)-4-(3,4-dihydroxyphenyl)pyrrolidine hydrobromide] | 15 | 0.38 | 5.3 | – | –
11 | Oc1ccc([C@@H]2CNC[C@H]2c2cccc3ccsc23)cc1O (relative stereo) [Compound G, trans-3-(7-benzothiophenyl)-4-(3,4-dihydroxyphenyl)pyrrolidine hydrobromide] | – | 0.4 | 6 | – | –
12 | Cc1ccsc1[C@@H]1CNC[C@H]1c1ccc(O)c(O)c1 (relative stereo) [Compound E, trans-3-(3,4-dihydroxyphenyl)-4-(3-methylthienyl)pyrrolidine hydrobromide] | – | 0.17 | 90 | – | 15
